Reference: patent US11780868B1, “Homoleptic metal coordination complexes as antifungal agents” (King Abdulaziz University, priority 2023, dated 2023)

What was measured:
[1] = system: horse red blood cells; assay: Haemolytic activity; format: cell-based; conditions: horse RBC
Protocol: To determine the cytotoxicity of C1, horse red blood cells (H-RBC; NHLS, Johannesburg, South Africa) were used. The horse blood was centrifuged, and the cell pellet was secured and washed three times with cold PBS. The final pellet was dissolved in cold PBS to make a 10% H-RBC solution. From this solution, 15 mL of 1% H-RBC solution was again prepared with the help of PBS. Then, 1 mL was aliquoted and added to various concentrations (0.5×MIC, 1×MIC, 2×MIC and 4×MIC) of C1 in 2 mL Eppendorf tubes. The negative control consisted of the RBC solution mixed with PBS; while the positive control consisted of RBC mixed with 1% Triton X-100. The samples were incubated for 4 h at 37° C. Following incubation, the samples were centrifuged at 2000 rpm for 10 minutes and supernatant (200 μL) was transferred to a flat-bottomed 96-well microtiter plate and the absorbance was measured at 450 nm using a SpectraMax ID3 Multimode Plate Reader (Molecular Devices, LLC., USA). The percentage of haemolysis was calculated by using the following equation: […]

[2] = system: Flz resistant strains of C. albicans; assay: Broth microdilution MIC/MFC, range over strains; format: cell-based, Candida albicans
Protocol: In this work, nine strains of C. albicans procured from Charlotte Maxeke Johannesburg Academic Hospital under ethical clearance number M000402 were employed (Table 1). All the C. albicans strains were preserved at −70° C. deep freezer in 50% (v/v) anhydrous glycerol (Sigma-Aldrich St. Louis, MO, U.S.A.). For conducting experiments, cultures were revived in Sabouraud Dextrose broth (SDB; Merck, Germany) at 37° C. and 120 rpm for 24 h. Additionally, the RPMI 1640 medium and MOPS (Sigma-Aldrich, USA) were prepared as described by the Clinical and Laboratory Standards Institute (CLSI).
The activity of C1 against Candida species (n=9) was first estimated in terms of minimum inhibitory concentration (MIC) and minimum fungicidal concentration (MFC). […] Briefly, stock solutions of Flz (used as reference; Sigma-Aldrich St. Louis, MO, U.S.A.) and the synthesized compound was prepared in 1% dimethyl sulfoxide (DMSO; Sigma-Aldrich St. Louis, MO, U.S.A.) and the test concentrations were formulated in RPMI 1640-MOPS medium. […] Growth was quantified by reading the optical density at 620 nm in a UV-1800 SHIMADZU spectrophotometer (Shimadzu Corporation, Japan). The MIC was determined as the lowest concentration that inhibited the growth of Candida strains. […]

SMILES: Brc1ccc([O][Co][O]c2ccc(Br)cc2C=Nc2ccc3c(c2)OCCO3)c(C=Nc2ccc3c(c2)OCCO3)c1 [Complex C1, [Co(L)2]]
- haemolytic activity (in words) [1]: considerably less haemolytic activity
- haemolytic activity ([1]; 4×MIC, 4 h, 37° C.): 10%
- MIC value range [2]: 9.76 to 19.53 µg/mL
